# “Also recorded” adds a separate entry of the source.
# Tests used:
# [1] = tested on: human PDL1 protein fused with 3×FLAG tag; experiment: inhibitory effect of shPDL1 on over-expressed hPDL1 protein in 293T cells, Western blot; assay type: cell-based; settings: 293T cells co-transfected 1:1 with pcDNA3.3-hPDL1-3×FLAG, 48 hours
# Description: 293T cells were transiently transfected with plasmids pSGU6/GFP/Neo-shPDL1-NC, pSGU6/GFP/Neo-shPDL1-1, pSGU6/GFP/Neo-shPDL1-2 and pSGU6/GFP/Neo-shPDL1-3 with pcDNA3.3-hPDL1-3×FLAG at an equimolar ratio (1:1), respectively, wherein plasmid pcDNA3.3-hPDL1-3×FLAG expresses the human PDL1 protein fused with 3×FLAG tag. Cell samples were collected after 48 hours, and Western blot analysis was performed after cell lysis.
# [2] = tested on: hPDL1 mRNA (human PDL1 mRNA); experiment: inhibitory effect of shPDL1 on hPDL1 mRNA, Real-time PCR; assay type: cell-based; settings: U251 and H460 cells, 24 h and 48 h after transfection, compared to control shRNA
# Description: U251 and H460 cells were seeded in 12-well plates at 2×10^5 cells per well, respectively, 12 hours in advance. U251 and H460 cells in each well were transfected with 1.6 μg shRNA expression vector DNA in a ratio to 4 μl lipofectamin 2000. Two cell samples were taken over 24 hours and 48 hours, respectively. After the total RNA was extracted and reverse transcription was performed, the expression level of human PDL1 mRNA in cells was detected by Real-time PCR with the mRNA level of GAPDH gene as a control.
Substance,over-expressed hPDL1 protein [1],inhibitory effect on hPDL1 mRNA [2]
shPDL1-#1 (GGGAAATGGAGGATAAGAACATTCAAGAGATGTTCTTATCCTCCATTTCCCTT; expressed or natural sequence),significantly reduce,inhibitory effect; also recorded: most significant inhibitory effect
shPDL1-#2: shRNA (coding sequence SEQ ID NO. 19) targeting region 430-452 of human PDL1 mRNA (DNA GGATCCAGTCACCTCTGAACATTCAAGAGATGTTCAGAGGTGACTGGATCCTT),–,inhibitory effect
shPDL1-#3: shRNA (coding sequence SEQ ID NO. 22) targeting region 589-611 of human PDL1 mRNA (DNA GAGAATCAACACAACAACTAATTCAAGAGATTAGTTGTTGTGTTGATTCTCTT),–,inhibitory effect

# — patent publication US12653851B2, “Isolated recombinant oncolytic adenoviruses, pharmaceutical compositions, and uses thereof for drugs for treatment of tumors and/or cancers” (HANGZHOU CONVERD CO., LTD., priority 2017, dated 2026)
